pIC50: −log10 of the molar value.
Legend:
[1] = biological target: Tyrosine-protein kinase SYK (Homo sapiens, UniProt P43405); experiment: Affinity for Syk protein tyrosine kinase
[2] = biological target: Proto-oncogene tyrosine-protein kinase Src (Homo sapiens, UniProt P12931); experiment: Affinity for Src protein tyrosine kinase
[3] = biological target: T1, Tyrosine-protein kinase ZAP-70 (Homo sapiens, UniProt P43403); experiment: Affinity for Zeta-chain (TCR) associated protein kinase 70 kDa (ZAP70)
T1 sequence (P43403 whole entry): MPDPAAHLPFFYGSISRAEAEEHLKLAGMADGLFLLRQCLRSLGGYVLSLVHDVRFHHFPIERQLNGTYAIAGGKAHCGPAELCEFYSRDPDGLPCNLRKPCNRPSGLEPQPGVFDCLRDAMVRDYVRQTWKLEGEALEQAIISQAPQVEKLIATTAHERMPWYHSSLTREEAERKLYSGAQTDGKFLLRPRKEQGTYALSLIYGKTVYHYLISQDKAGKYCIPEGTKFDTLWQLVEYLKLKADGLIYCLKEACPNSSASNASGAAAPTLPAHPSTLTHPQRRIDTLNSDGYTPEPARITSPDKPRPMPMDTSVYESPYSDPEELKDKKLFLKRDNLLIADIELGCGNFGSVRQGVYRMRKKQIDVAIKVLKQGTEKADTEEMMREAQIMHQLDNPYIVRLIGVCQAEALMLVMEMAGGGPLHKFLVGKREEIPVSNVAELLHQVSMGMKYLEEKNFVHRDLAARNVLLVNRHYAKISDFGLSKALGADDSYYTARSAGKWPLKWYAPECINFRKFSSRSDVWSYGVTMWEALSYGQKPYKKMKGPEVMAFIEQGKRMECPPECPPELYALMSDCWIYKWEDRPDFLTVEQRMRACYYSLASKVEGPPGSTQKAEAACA

Chain of Proto-oncogene tyrosine-protein kinase Src (P12931 2-536 limits assumed): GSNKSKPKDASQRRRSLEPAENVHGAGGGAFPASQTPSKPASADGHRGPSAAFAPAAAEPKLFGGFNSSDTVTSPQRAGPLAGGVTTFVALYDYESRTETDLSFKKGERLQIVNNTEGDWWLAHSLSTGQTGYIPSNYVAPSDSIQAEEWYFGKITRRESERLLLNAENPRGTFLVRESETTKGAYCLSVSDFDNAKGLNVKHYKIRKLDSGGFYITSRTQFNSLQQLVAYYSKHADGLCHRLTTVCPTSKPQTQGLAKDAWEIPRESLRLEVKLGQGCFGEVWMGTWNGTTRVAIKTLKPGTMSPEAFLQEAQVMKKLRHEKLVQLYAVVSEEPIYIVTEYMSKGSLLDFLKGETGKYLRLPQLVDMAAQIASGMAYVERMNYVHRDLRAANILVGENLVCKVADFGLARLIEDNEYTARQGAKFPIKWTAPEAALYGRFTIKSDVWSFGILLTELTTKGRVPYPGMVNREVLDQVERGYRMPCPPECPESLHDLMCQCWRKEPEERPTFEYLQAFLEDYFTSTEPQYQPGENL

Structure (SMILES)	pIC50 [1]	pIC50 [2]	pIC50 [3]
CC(=O)N[C@@H](Cc1ccc(OP(=O)(O)O)cc1)C(=O)N[C@@H](C)c1nc(Cc2ccc(Cl)c(Cl)c2)no1	–	3.68	–
C[C@H](NC(=O)Nc1cccc2cc(OP(=O)(O)O)ccc12)c1nc(Cc2ccc(Cl)c(Cl)c2)no1	3.51	3.70	–
C[C@H](NC(=O)[C@H](Cc1ccc(OP(=O)(O)O)cc1)CS(=O)(=O)C(C)(C)C)c1nc(Cc2ccc(C(F)(F)F)cc2)no1	< 3.30	3.69	–
C[C@H](NC(=O)CCc1ccc(OP(=O)(O)O)cc1)c1nc(Cc2ccc(Cl)c(Cl)c2)no1	< 3.30	3.34	3.70
C[C@H](NC(=O)[C@@H](CC(=O)O)Cc1ccc(OP(=O)(O)O)cc1)c1nc(Cc2ccc(C(F)(F)F)cc2)no1	< 3.30	3.99	–

These reach a higher pIC50 [2]. Values come first.

pIC50 [1]	pIC50 [2]	pIC50 [3]	Structure (SMILES)
< 3.30	4.28	–	C[C@H](NC(=O)[C@@H](CC(=O)O)Cc1ccc(OP(=O)(O)O)cc1)c1nc(Cc2ccc(Cl)c(Cl)c2)no1
< 3.30	4.27	–	O=C(O)C[C@@H](Cc1ccc(OP(=O)(O)O)cc1)C(=O)N[C@@H](CO)c1nc(Cc2ccc(Cl)c(Cl)c2)no1
–	4.14	–	CC(=O)N[C@@H](Cc1ccc(OP(=O)(O)O)cc1)C(=O)N[C@@H](C)c1nc(Cc2ccc(C(F)(F)F)cc2)no1
3.36	4.09	–	C[C@H](NC(=O)c1cc2cc(OP(=O)(O)O)ccc2[nH]1)c1nc(Cc2ccc(Cl)c(Cl)c2)no1

— ChEMBL document CHEMBL1131855, “Nonpeptidic SH2 inhibitors of the tyrosine kinase ZAP-70” (Bioorg Med Chem Lett, 1999)
